Assay results published in the supplement of paper PMC11061612.

Key:
Assay in all cases: combination Emax (second highest fraction inhibited in the dose matrix, 72 h); higher = more inhibition; extreme values may be limits of the assay
[1] = system: A3-KAW (B-Cell Non-Hodgkin's Lymphoma)
Outline: (§1)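 After 24 hours at 37°C and 5% CO2 in 1536-well plates, cells in DMEM/F12 or RPMI plus 10% FBS received two-drug dose matrices for 72 hours. Viability came from CellTiter-Glo 2.0 luminescence and was scaled as inhibition, anchored at 0 by vehicle wells and at 1 by blank wells. Combination Emax is taken as the second-highest inhibition in the matrix, and Bliss excess as the observed combination effect less EA + EB − EA·EB, with EA and EB the single-agent effects.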

[2] = system: NCI-H1581 (Non-Small Cell Lung Carcinoma)
Outline: as §1

8-MG-BA (Glioblastoma) = system: 8-MG-BA (Glioblastoma)
Outline: as §1

[3] = system: TT (Thyroid Gland Carcinoma)
Outline: as §1

A498 (Kidney Carcinoma) = system: A498 (Kidney Carcinoma)
Outline: as §1

[4] = system: CCK-81 (Colorectal Carcinoma)
Outline: as §1

IGR-37 (Melanoma) = system: IGR-37 (Melanoma)
Outline: as §1

[5] = system: COLO-824 (Breast Carcinoma)
Outline: as §1

[6] = system: NCI-H1666 (Lung Adenocarcinoma)
Outline: as §1

[7] = system: VCaP (Prostate Carcinoma)
Outline: as §1

[8] = system: PANC-10-05 (Pancreatic Carcinoma)
Outline: as §1

NY (Osteosarcoma) = system: NY (Osteosarcoma)
Outline: as §1

[9] = system: CAL-29 (Bladder Carcinoma)
Outline: as §1

Hs-445 (Non-Cancerous) = system: Hs-445 (Non-Cancerous)
Outline: as §1

NCI-H2591 (Mesothelioma) = system: NCI-H2591 (Mesothelioma)
Outline: as §1

[10] = system: SK-MG-1 (Low Grade Glioma)
Outline: as §1

[11] = system: JSC-1 (B-Cell Non-Hodgkin's Lymphoma)
Outline: as §1

GI-ME-N (Neuroblastoma) = system: GI-ME-N (Neuroblastoma)
Outline: as §1

[12] = system: MDST8 (Colorectal Carcinoma)
Outline: as §1

ARH-77 (Non-Cancerous) = system: ARH-77 (Non-Cancerous)
Outline: as §1

Structure (SMILES)	combination Emax [1]	combination Emax [2]	combination Emax (8-MG-BA (Glioblastoma))	combination Emax [3]	combination Emax (A498 (Kidney Carcinoma))	combination Emax [4]	combination Emax (IGR-37 (Melanoma))	combination Emax [5]	combination Emax [6]	combination Emax [7]	combination Emax [8]	combination Emax (NY (Osteosarcoma))	combination Emax [9]	combination Emax (Hs-445 (Non-Cancerous))	combination Emax (NCI-H2591 (Mesothelioma))	combination Emax [10]	combination Emax [11]	combination Emax (GI-ME-N (Neuroblastoma))	combination Emax [12]	combination Emax (ARH-77 (Non-Cancerous))
Cc1c2c(nn1C)CSCc1cc(n(C)n1)CSc1cc(c3ccccc3c1)OCCCc1c(C(=O)O)n(C)c3c-2c(Cl)ccc13 [AZD5991] + CC1(C)CCC(CN2CCN(c3ccc(C(=O)NS(=O)(=O)c4ccc(NCC5CCOCC5)c([N+](=O)[O-])c4)c(Oc4cnc5[nH]ccc5c4)c3)CC2)=C(c2ccc(Cl)cc2)C1 [Venetoclax] (first compound max 1 µM, 7x7, partner max 1 µM)	1	0.968	0.855	0.83	0.361	0.871	0.282	0.997	0.242	0.913	0.188	0.729	0.391	0.962	0.154	0.178	1	0.354	0.228	0.859
Cc1c2c(nn1C)CSCc1cc(n(C)n1)CSc1cc(c3ccccc3c1)OCCCc1c(C(=O)O)n(C)c3c-2c(Cl)ccc13 [AZD5991] + CCN(CCO)CCCOc1ccc2c(Nc3cc(CC(=O)Nc4cccc(F)c4)[nH]n3)ncnc2c1 [AZD2811] (first compound max 1 µM, 7x7, partner max 1 µM)	1	1	0.836	0.574	0.352	0.875	0.24	0.815	0.334	0.94	0.303	0.48	0.739	0.968	0.265	0.465	1	0.354	0.362	0.904
Cc1c2c(nn1C)CSCc1cc(n(C)n1)CSc1cc(c3ccccc3c1)OCCCc1c(C(=O)O)n(C)c3c-2c(Cl)ccc13 [AZD5991] + CN(C)CCCOc1ccc(-c2ccc3ncc4c(c3c2)n(C2CCOCC2)c(=O)n4C)cn1 [AZD0156] (first compound max 1 µM, 7x7, partner max 1 µM)	1	0.976	0.586	0.297	0.392	0.88	0.282	0.411	0.238	0.913	0.334	0.399	0.545	0.949	0.185	0.539	1	0.307	0.242	0.867
Cc1c2c(nn1C)CSCc1cc(n(C)n1)CSc1cc(c3ccccc3c1)OCCCc1c(C(=O)O)n(C)c3c-2c(Cl)ccc13 [AZD5991] + C[C@@H]1COCCN1C2=NC(=NC(=C2)C3(CC3)[S@](=N)(=O)C)C4=C5C=CNC5=NC=C4 [AZD6738] (first compound max 1 µM, 7x7, partner max 10 µM)	1	1	0.961	0.56	0.621	0.979	0.848	0.868	0.322	0.947	0.488	0.805	0.897	1	0.392	0.566	1	0.431	0.78	0.976
Cc1c2c(nn1C)CSCc1cc(n(C)n1)CSc1cc(c3ccccc3c1)OCCCc1c(C(=O)O)n(C)c3c-2c(Cl)ccc13 [AZD5991] + C[C@@H](Nc1cc(F)cc(F)c1)c1cc(C(=O)N(C)C)cc2c(=O)cc(N3CCOCC3)oc12 [AZD8186] (first compound max 1 µM, 7x7, partner max 3 µM)	1	0.991	0.734	0.394	0.742	0.899	0.325	0.441	0.386	0.935	0.311	0.631	0.421	0.929	0.196	0.648	1	0.301	0.265	0.928
Cc1c2c(nn1C)CSCc1cc(n(C)n1)CSc1cc(c3ccccc3c1)OCCCc1c(C(=O)O)n(C)c3c-2c(Cl)ccc13 [AZD5991] + Cc1cc2ncnn2cc1Nc1ncc2c(n1)n(C1CCOCC1)c(=O)n2C [AZD7648] (first compound max 1 µM, 7x7, partner max 10 µM)	1	1	0.646	0.38	0.423	0.933	0.25	0.364	0.246	0.94	0.404	0.579	0.43	0.942	0.305	0.374	1	0.228	0.34	0.835
Cc1cc2ncnn2cc1Nc1ncc2c(n1)n(C1CCOCC1)c(=O)n2C [AZD7648] + C=CCn1c(=O)c2cnc(Nc3ccc(N4CCN(C)CC4)cc3)nc2n1-c1cccc(C(C)(C)O)n1 [AZD1775] (first compound max 10 µM, partner max 1 µM)	0.896	0.379	0.648	0.475	0.521	0.833	0.674	0.658	0.357	0.533	0.49	0.548	0.618	0.909	0.368	0.594	0.931	0.393	0.513	0.969
